Source: ChEMBL document CHEMBL6178017, “Intercepting the Downstream of the Estrogen Receptor Signaling Pathway: Discovery of a Potent and Efficient SRC-3 PROTAC Degrader for Overcoming Endocrine Resistance Breast Cancer” (J Med Chem, 2025)
pIC50: −log10 of the molar value. The source made the active and inactive calls. The rule behind the calls is not given here.

Experiments:
MCF7 [1] = experiment: Antiproliferative activity against human MCF7 cells harboring ER-alpha Y537S mutant assessed as inhibition of cell growth by CCK8 assay; assay type: functional, cell-based
MCF7 [2] = experiment: Antiproliferative activity against human MCF7 cells assessed as inhibition of cell growth by CCK8 assay; assay type: functional, cell-based
[3] = biological target: T1, Protein cereblon/Nuclear receptor coactivator 3 (Homo sapiens, UniProt Q9Y6Q9+Q96SW2); experiment: PROTAC activity at CRBN/SRC-3 in human MCF7 cells assessed as induction of ER-alpha degradation at 1 uM incubated for 24 hrs by immunoblot analysis relative to control; assay type: cell-based
MCF7 [4] = experiment: Antiproliferative activity against human MCF7 cells harboring ER-alpha D538G mutant assessed as inhibition of cell growth by CCK8 assay; assay type: functional, cell-based
[5] = biological target: T1, Protein cereblon/Nuclear receptor coactivator 3; experiment: PROTAC activity at CRBN/SRC-3 in human MCF7 cells assessed as induction of SRC-3 degradation at 1 uM incubated for 24 hrs by immunoblot analysis relative to control; assay type: cell-based
[6] = Antiproliferative activity against tamoxifen-resistant human LCC2 cells assessed as inhibition of cell growth by CCK8 assay; assay type: functional, cell-based
[7] = biological target: T2, von Hippel-Lindau disease tumor suppressor/Nuclear receptor coactivator 3 (Homo sapiens) (UniProt Q9Y6Q9+P40337); experiment: PROTAC activity at VHL/SRC-3 in human MCF7 cells assessed as induction of SRC-3 degradation at 1 uM incubated for 24 hrs by immunoblot analysis relative to control; assay type: cell-based
[8] = biological target: T2, von Hippel-Lindau disease tumor suppressor/Nuclear receptor coactivator 3 (Homo sapiens); experiment: PROTAC activity at VHL/SRC-3 in human MCF7 cells assessed as induction of […] degradation at 1 uM incubated for 24 hrs by immunoblot analysis relative to control; assay type: cell-based
MCF-10A = experiment: Cytotoxicity against human MCF-10A cells assessed as cell growth by CCK-8 assay; assay type: toxicity, cell-based
[9] = biological target: T1, Protein cereblon/Nuclear receptor coactivator 3; experiment: PROTAC activity at CRBN/SRC-3 in tamoxifen-resistant human LCC2 cells assessed as maximal induction of SRC-3 degradation at 1 uM incubated for 36 hrs by immunoblot analysis; assay type: cell-based; conditions: Tamoxifen-resistant LCC2 cell
[10] = biological target: T1, Protein cereblon/Nuclear receptor coactivator 3; experiment: PROTAC activity at CRBN/SRC-3 in human MCF7 cells assessed as maximal induction of SRC-3 degradation at 1 uM incubated for 36 hrs by immunoblot analysis; assay type: cell-based
LNCaP = experiment: Antiproliferative activity against human LNCaP cells assessed as inhibition of cell growth by CCK-8 assay; assay type: functional, cell-based
[11] = Half life of the compound in human plasma by LC-MS/MS analysis; assay type: ADME, cell-free
[12] = Metabolic stability of the compound in human plasma measured after 2 hrs by LC-MS/MS analysis; assay type: ADME, cell-free; conditions: read-out: Stability
MCF7 [13] = experiment: Induction of SRC-3 degradation in human MCF7 cells at 1 uM incubated for 24 hrs by immunoblot analysis relative to control; assay type: cell-based
MCF7 [14] = experiment: Induction of ER-alpha degradation in human MCF7 cells at 1 uM incubated for 24 hrs by immunoblot analysis relative to control; assay type: cell-based
[15] = test system: Tamoxifen-resistant LCC2 cell; experiment: Antitumor activity against tamoxifen-resistant human LCC2 cells xenografted in Balb/c mouse assessed as inhibition of tumor growth at 3 uM/Kg, ip administered once every 2 days for 23 days; assay type: functional, organism-based; conditions: time 23.0 day

T1 sequence (Q96SW2 whole entry partner): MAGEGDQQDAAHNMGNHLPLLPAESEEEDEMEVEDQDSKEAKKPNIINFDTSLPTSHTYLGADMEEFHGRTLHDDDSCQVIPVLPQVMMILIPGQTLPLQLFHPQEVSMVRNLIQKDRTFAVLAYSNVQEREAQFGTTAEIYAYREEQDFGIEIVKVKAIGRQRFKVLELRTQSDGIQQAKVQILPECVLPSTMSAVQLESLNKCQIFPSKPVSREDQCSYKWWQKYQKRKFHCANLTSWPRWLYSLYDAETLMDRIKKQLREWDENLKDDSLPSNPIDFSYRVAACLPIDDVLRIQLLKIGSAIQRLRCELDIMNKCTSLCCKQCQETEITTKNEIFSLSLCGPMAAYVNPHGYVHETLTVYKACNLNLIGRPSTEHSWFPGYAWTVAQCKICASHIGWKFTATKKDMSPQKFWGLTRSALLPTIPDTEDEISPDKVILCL
T1 sequence (Q9Y6Q9 2-1424 limits assumed): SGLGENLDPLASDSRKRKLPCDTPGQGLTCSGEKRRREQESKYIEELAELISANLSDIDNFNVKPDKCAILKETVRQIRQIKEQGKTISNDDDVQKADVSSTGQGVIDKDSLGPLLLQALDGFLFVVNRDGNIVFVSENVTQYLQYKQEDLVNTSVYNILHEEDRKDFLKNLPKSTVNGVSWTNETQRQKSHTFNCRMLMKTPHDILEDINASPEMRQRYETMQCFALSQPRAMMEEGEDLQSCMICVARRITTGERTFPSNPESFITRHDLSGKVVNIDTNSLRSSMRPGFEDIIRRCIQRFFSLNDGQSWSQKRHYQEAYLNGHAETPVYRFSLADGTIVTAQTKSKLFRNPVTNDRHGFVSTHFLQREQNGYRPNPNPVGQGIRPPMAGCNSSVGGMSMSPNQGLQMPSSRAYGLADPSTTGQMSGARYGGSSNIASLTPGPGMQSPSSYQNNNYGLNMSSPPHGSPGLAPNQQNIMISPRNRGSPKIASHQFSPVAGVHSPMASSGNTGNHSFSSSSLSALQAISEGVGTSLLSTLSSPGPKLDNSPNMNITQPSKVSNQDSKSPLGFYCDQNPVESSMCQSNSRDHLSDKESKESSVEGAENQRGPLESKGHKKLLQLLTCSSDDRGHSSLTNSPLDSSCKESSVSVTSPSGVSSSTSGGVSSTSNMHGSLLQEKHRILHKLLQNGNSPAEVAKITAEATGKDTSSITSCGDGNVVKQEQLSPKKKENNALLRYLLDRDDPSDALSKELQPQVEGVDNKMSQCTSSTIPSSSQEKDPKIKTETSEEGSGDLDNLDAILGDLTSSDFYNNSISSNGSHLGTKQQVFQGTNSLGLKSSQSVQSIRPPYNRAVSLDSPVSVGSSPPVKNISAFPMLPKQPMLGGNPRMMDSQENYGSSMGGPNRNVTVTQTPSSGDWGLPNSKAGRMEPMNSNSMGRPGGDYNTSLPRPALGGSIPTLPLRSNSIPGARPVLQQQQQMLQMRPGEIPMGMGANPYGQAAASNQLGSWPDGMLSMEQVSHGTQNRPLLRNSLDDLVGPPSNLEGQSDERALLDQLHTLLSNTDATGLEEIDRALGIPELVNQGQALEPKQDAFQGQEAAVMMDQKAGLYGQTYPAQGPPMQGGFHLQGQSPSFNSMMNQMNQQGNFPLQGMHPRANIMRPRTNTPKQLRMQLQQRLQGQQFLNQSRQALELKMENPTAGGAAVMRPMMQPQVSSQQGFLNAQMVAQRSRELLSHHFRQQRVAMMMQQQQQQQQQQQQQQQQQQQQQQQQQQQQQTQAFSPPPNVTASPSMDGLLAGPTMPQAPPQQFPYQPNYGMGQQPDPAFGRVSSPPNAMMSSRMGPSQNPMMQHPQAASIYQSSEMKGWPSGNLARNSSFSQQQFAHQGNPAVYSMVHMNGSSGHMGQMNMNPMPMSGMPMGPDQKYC
T2 sequence (P40337 whole entry, looked up): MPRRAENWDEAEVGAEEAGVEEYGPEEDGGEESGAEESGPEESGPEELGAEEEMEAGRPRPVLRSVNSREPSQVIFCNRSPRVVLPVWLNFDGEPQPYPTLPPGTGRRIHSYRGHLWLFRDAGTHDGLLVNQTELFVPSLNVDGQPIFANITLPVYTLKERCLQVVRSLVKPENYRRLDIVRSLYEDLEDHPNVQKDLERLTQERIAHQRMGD
T2 sequence (Q9Y6Q9 whole entry, looked up): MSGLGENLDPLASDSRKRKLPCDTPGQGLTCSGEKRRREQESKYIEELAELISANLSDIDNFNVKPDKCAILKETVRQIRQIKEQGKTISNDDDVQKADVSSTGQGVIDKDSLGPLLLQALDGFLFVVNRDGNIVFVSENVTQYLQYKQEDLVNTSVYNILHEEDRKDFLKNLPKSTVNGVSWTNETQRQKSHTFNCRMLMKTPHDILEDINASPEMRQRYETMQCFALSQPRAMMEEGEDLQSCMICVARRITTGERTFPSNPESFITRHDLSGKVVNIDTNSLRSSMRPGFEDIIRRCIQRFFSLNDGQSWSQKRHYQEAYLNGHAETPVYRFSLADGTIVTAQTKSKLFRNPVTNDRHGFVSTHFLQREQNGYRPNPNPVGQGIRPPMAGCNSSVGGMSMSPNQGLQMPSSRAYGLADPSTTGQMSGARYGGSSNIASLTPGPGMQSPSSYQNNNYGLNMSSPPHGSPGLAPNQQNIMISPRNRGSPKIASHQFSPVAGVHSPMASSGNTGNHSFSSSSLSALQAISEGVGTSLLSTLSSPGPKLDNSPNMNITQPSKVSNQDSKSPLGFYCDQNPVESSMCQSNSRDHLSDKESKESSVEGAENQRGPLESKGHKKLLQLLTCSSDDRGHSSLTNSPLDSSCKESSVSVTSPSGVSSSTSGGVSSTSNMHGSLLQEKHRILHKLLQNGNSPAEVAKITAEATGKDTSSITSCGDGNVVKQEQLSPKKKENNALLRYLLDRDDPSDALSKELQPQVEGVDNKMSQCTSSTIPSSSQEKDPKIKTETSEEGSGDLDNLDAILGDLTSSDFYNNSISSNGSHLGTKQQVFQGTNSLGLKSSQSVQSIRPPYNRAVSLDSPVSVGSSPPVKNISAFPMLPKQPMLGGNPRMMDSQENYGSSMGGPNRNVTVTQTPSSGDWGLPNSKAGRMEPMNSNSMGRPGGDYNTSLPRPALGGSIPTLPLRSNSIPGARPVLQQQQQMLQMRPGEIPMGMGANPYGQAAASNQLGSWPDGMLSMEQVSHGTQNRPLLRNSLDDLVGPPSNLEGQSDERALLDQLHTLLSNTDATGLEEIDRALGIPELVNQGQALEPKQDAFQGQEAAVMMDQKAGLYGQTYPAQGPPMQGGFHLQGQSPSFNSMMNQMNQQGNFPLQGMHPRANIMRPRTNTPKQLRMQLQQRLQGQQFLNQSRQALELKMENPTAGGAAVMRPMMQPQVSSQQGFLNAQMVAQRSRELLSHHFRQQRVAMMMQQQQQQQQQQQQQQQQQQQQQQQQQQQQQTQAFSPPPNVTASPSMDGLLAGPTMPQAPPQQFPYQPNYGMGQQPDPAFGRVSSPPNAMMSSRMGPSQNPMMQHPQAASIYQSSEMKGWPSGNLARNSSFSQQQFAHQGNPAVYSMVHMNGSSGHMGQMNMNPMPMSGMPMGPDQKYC

| SMILES | pIC50 (MCF7 [1]) | pIC50 (MCF7 [2]) | Activity [3] | pIC50 (MCF7 [4]) | Activity [5] | pIC50 [6] | Activity [7] [%] | Activity [8] [%] | Activity (MCF-10A) | also measured |
| --- | --- | --- | --- | --- | --- | --- | --- | --- | --- | --- |
| C/C(=N\Nc1nc2ccccc2n1C1CN(c2cccc3c2C(=O)N(C2CCC(=O)NC2=O)C3=O)C1)c1ccccn1 (configuration not stated) | 7.00 | 5.03 | 16% | 6.28 | 17% | 5.47 |  |  |  |  |
| C/C(=N\Nc1nc2ccccc2n1CC1CN(c2cccc3c2C(=O)N(C2CCC(=O)NC2=O)C3=O)C1)c1ccccn1 (configuration not stated) | 6.89 | 5.53 | 26% | 6.25 | 15% | 5.20 |  |  |  |  |
| C/C(=N\Nc1nc2ccccc2n1C1CN(c2ccc3c(c2)C(=O)N(C2CCC(=O)NC2=O)C3=O)C1)c1ccccn1 (configuration not stated) | 6.17 | 6.49 | inactive | 6.02 | 10% | 5.31 |  |  |  |  |
| C/C(=N\Nc1nc2ccccc2n1CC1CCN(CC(=O)N[C@H](C(=O)N2C[C@H](O)C[C@H]2C(=O)N[C@@H](C)c2ccc(-c3scnc3C)cc2)C(C)(C)C)CC1)c1ccccn1 | 6.03 | 6.16 |  | 6.16 |  | 5.56 | 21 | 10 | Non-toxic |  |
| C/C(=N\Nc1nc2ccccc2n1C1CN(C2CCN(c3cccc4c3C(=O)N(C3CCC(=O)N(C)C3=O)C4=O)CC2)C1)c1ccccn1 (configuration not stated) |  |  |  |  |  |  |  |  |  | Activity [9]: inactive; Activity [10]: inactive |
| C/C(=N\Nc1nc2ccccc2n1C1CN(C(=O)C2CN(c3cccc4c3C(=O)N(C3CCC(=O)NC3=O)C4=O)C2)C1)c1ccccn1 (configuration not stated) | 4.72 | 5.08 | 5% | 4.93 | inactive | 4.83 |  |  |  |  |
| C/C(=N\Nc1nc2ccccc2n1CCNC(=O)C1CC2(CCN(c3ccc4c(c3)C(=O)N(C3CCC(=O)NC3=O)C4=O)CC2)C1)c1ccccn1 (configuration not stated) | 5.97 | 5.53 | inactive | 5.95 | 5% | 5.06 |  |  |  |  |
| C/C(=N\Nc1nc2ccccc2n1CC1CN(c2ccc3c(c2)C(=O)N(C2CCC(=O)NC2=O)C3=O)C1)c1ccccn1 (configuration not stated) | 6.49 | 6.43 | 15% | 6.54 | inactive | 5.51 |  |  |  |  |
| C/C(=N\Nc1nc2ccccc2n1CCNC(=O)CCCCCCCCN[C@H](C(=O)N1C[C@H](O)C[C@H]1C(=O)N[C@@H](C)c1ccc(-c2scnc2C)cc1)C(C)(C)C)c1ccccn1 | 6.82 | 7.22 |  | 6.44 |  | 6.12 | 68 | 65 | Non-toxic | pIC50 (LNCaP): 5.84 |
| CC/C(=C(\c1ccc(O)cc1)c1ccc(OCCN(C)C)cc1)c1ccccc1 [AFIMOXIFENE] | 4.73 | 6.42 |  | 5.07 |  | 4.58 |  |  |  |  |
| C/C(=N\Nc1nc2ccccc2n1CCNC(=O)CCCCCCN[C@H](C(=O)N1C[C@H](O)C[C@H]1C(=O)N[C@@H](C)c1ccc(-c2scnc2C)cc1)C(C)(C)C)c1ccccn1 | 6.08 | 6.33 |  | 5.98 |  | 5.43 | 62 | 43 | Non-toxic |  |
| C/C(=N\Nc1nc2ccccc2n1CC1CCN(C(=O)CCCCCCCNc2cccc3c2CN(C2CCC(=O)NC2=O)C3=O)CC1)c1ccccn1 (configuration not stated) | 6.03 | 6.08 | 39% | 5.90 | 32% | 5.30 |  |  |  |  |
| C/C(=N\Nc1nc2ccccc2n1CCNC(=O)CCCCCN[C@H](C(=O)N1C[C@H](O)C[C@H]1C(=O)N[C@@H](C)c1ccc(-c2scnc2C)cc1)C(C)(C)C)c1ccccn1 | 5.56 | 5.80 |  | 5.60 |  | 5.15 | 8 | 15 | Non-toxic |  |
| C/C(=N\Nc1nc2ccccc2n1CC1CCN(c2ccc3c(c2)C(=O)N(C2CCC(=O)NC2=O)C3=O)CC1)c1ccccn1 (configuration not stated) | 6.44 | 5.95 | 34% | 5.82 | 28% | 5.29 |  |  |  |  |
| CCN(CC)CCOC(=O)c1ccc(N)cc1 [PROCAINE] |  |  |  |  |  |  |  |  |  | half-life [11]: 0.0303 h |
| C/C(=N\Nc1nc2ccccc2n1CCNC(=O)CCCCCCCN[C@H](C(=O)N1C[C@H](O)C[C@H]1C(=O)N[C@@H](C)c1ccc(-c2scnc2C)cc1)C(C)(C)C)c1ccccn1 | 6.44 | 6.28 |  | 6.35 |  | 5.71 | 56 | 38 | Non-toxic |  |
| C/C(=N\Nc1nc2ccccc2n1CCNC(=O)CN1CCC(CN2CCN(c3ccc4c(c3)C(=O)N(C3CCC(=O)NC3=O)C4=O)CC2)CC1)c1ccccn1 (configuration not stated) | 6.30 | 5.91 | 30% | 6.07 | 23% | 5.06 |  |  |  |  |
| C/C(=N\Nc1nc2ccccc2n1C1CN(C(=O)C2CCN(c3cccc4c3C(=O)N(C3CCC(=O)NC3=O)C4=O)CC2)C1)c1ccccn1 (configuration not stated) | 6.12 | 5.31 | 15% | 5.76 | 29% | 5.23 |  |  |  |  |
| C/C(=N\Nc1nc2ccccc2n1C)c1ccccn1 | 8.40 | 6.33 |  | 6.11 |  | 6.22 |  |  |  | remaining at 2 h [12]: > 50%; Activity (MCF7 [13]): 53%; half-life [11]: 2.17 h; Activity (MCF7 [14]): 86% |
| C/C(=N\Nc1nc2ccccc2n1CCNC(=O)CN1CCC2(CC1)CCN(c1ccc3c(c1)C(=O)N(C1CCC(=O)NC1=O)C3=O)CC2)c1ccccn1 (configuration not stated) | 5.14 | 5.25 | inactive | 5.16 | inactive | 5.10 |  |  |  |  |
| C/C(=N\Nc1nc2ccccc2n1CCNC(=O)CCCCCCCCCN[C@H](C(=O)N1C[C@H](O)C[C@H]1C(=O)N[C@@H](C)c1ccc(-c2scnc2C)cc1)C(C)(C)C)c1ccccn1 | 6.89 | 7.05 |  | 6.46 |  | 5.95 | 63 | 61 | Non-toxic |  |
| C/C(=N\Nc1nc2ccccc2n1CCNC(=O)CCCCCCCCCCN[C@H](C(=O)N1C[C@H](O)C[C@H]1C(=O)N[C@@H](C)c1ccc(-c2scnc2C)cc1)C(C)(C)C)c1ccccn1 | 6.80 | 7.10 |  | 6.39 |  | 5.97 | 62 | 62 | Non-toxic |  |
| CC/C(=C(\c1ccccc1)c1ccc(OCCN(C)C)cc1)c1ccccc1 |  |  |  |  |  |  |  |  |  | Activity [15]: inactive |
